Data: EP1267623B1, “ACYCLIC MONOTERPENES AS ANTI-SPROUTING AGENTS FOR POTATO TUBERS” (COUNCIL OF SCIENTIFIC & INDUSTRIAL RESEARCH; An Indian …, priority 2000, dated 2001)

Experiments:
Format in all cases: in vivo
[1] = system: potato tubers; test: Sprout inhibition by dipping in combinations of monoterpenes and other compounds (Example 5); settings: dipping five hours in aqueous solution with Tween 20, 4-8 mM
Protocol: Combination of 4-8 mM of each geraniol, citral , citronella and citronellal were tried to determine the best combination. Along with this some other compounds were also tried. The terpenes were applied by dipping the tubers for five hours in aqueous solution of the monoterpenes containing Tween 20 as emulsifying agent. […] Other chemicals were not very effective. Results are given in table 5.Menthol, anisaldehyde, thymol, cinnamom bark oil and thymol has been used earlier (U.S. Patent No. 5,129,951 ) and were effective.

[2] = system: potato tubers; test: Sprout inhibition after dipping tubers in 8 mM emulsions of purified compounds (Example 3); settings: for % eyes sprouted: 8 mM emulsion with Tween 20, dipping 5 hours, then 10 days in jars at ambient temperature; for dormancy of tubers under repeated treatment: emulsion, dipped 5 hours, kept 10 days, then dipped again, after two months
Protocol: Therefore essential oils were purified by column chromatography and substantially pure compounds were used.
Emulsion of the compounds were prepared of 8 mM concentration of each compound in distilled water containing 2x10-6 % Tween 20 as emulsifier ( control tubers were treated with Tween 20 only). Tubers were treated by dipping each tuber in emulsion for 5 hours, where upon excess liquid was allowed to drain off. Six tubers per treatment were used, with two replicates, and all experiments were repeated once. Tubers were then kept in jars for 10 days at ambient temperature. Tubers were then evaluated as in example 1 & 2 for percentage of sprouted eyes, tuber texture and fungal growth.
Geranyl acetate inhibited sprouting by 42%. […] A&M plants 3 (3) no. 1452 pp 183].
Geraniol, citral, citranellol, citranellal and menthyl acetate were as effective as reported monoterpenes such as benzaldehyde, cinnamaldehyde, eugenol and thymol (U.S.patent no. 5,129,951).

[3] = system: potato tubers; test: Sprout inhibition by dipping in geraniol and citral at different concentrations (Example 4); settings: for % eyes sprouted: dipping 5 hours, then 12 days in jars; for sprouting till 20 days after treatment: experiment continued till 20 days after treatment (6 and 8 mM)
Protocol: Tubers were treated with geraniol and citral the two promising chemicals at different concentrations. The terpenes were applied at 4mM, 6mM and 8m M for 5 hours by dipping the tubers and then the tubers were kept in jars for 12 days.

[4] = system: potato tubers; test: Sprout inhibition by exposure to vapours of volatilized compounds for seven days (Example 6); settings: for % eyes sprouted: exposed to vapours (1 ml on filter paper, saturated atmosphere) for seven days, 14 days after removal; for sprouting 18 days after removal from treatment flask: exposed to vapours for seven days
Description: Tubers treated with emulsions of different aromatic compounds remained dormant. Therefore, it was tried to find out the response when tubers were exposed to vapours of volatilized compounds for sprout inhibition. Substantially pure compounds were used as in other examples. Six potatoes were placed in air tight jars containing 9 cm piece of filter paper saturated with one ml of the liquid compound. These amounts were sufficient to produce a saturated atmosphere in the flask. The filter paper was placed in the cap of the flask so that no direct physical contact with the tuber occurred. The tubers were removed after seven days and placed in flasks containing fresh air at ambient temperature. Control tubers were placed in sealed flask lacking any added compound. […] Such short term treatment would greatly lessen costs to the potato industry.

[5] = system: potato tubers; test: Sprout inhibition by exposure to fumes of citral from a vaporizer for 1, 2 or 4 days (Example 7); settings: 14 days after treatment
Protocol: The tubers were exposed to fumes of citral with the help of a vaporizer at ambient temperature in a close atmosphere for 24 hour, 48 hour and 96 hours. The tubers were then placed in flask containing fresh air and free of any additional volatilized compound. Control tubers were placed in sealed flasks lacking any added compounds. Fourteen days after treatment all tubers examined for percentage of eyes sprouted, tuber texture and fungal growth. 7

[6] = 8 mM emulsion, dipping 5 hours, 10 days

| SMILES | % eyes sprouted After 3 days [1] [%] | % eyes sprouted after 7 days [1] [%] | % eyes sprouted after 14 days [1] [%] | % eyes sprouted [2] [%] | effect on tuber sprouting (in words) [2, 6] | % eyes sprouted [4] [%] | sprouting 18 days after removal from treatment flask [4] | other results |
| --- | --- | --- | --- | --- | --- | --- | --- | --- |
| CC=Cc1ccc(OC)cc1 [Anethol] | 0.0 | 0.0 | 51 | – | – | – | – | – |
| COc1ccc(C=O)cc1 [Anisaldehyde] | 78 | 96 | 96 | – | – | – | – | – |
| CC12CCC(CC1=O)C2(C)C (stereo not drawn) [Camphor] | – | – | – | 89 | no significant effect | – | – | – |
| CC(C)=CCCC(C)=CC=O [Citral] | – | – | – | 19 | completely inhibited sprouting | 0.0 | remained unsprouted | dormancy of tubers under repeated treatment [2]: completely dormant; % eyes sprouted ([3]; 4mM): 4.1%; % eyes sprouted ([3]; 6mM): 0.0%; % eyes sprouted ([3]; 8 mM): 0.0%; sprouting till 20 days after treatment [3]: sprouting was not observed; % eyes sprouted ([5]; exposure to fumes for 1 Day (24 hour)): 18.5%; % eyes sprouted ([5]; exposure to fumes for 2 Days (48 hour)): 8.3%; % eyes sprouted ([5]; exposure to fumes for 4 Days (96 hours)): 0.0% |
| CC(C)=CCC/C(C)=C/CO [Geraniol] | – | – | – | 16 | completely inhibited sprouting | 0.0 | remained unsprouted | dormancy of tubers under repeated treatment [2]: completely dormant; % eyes sprouted ([3]; 4mM): 7.5%; % eyes sprouted ([3]; 6mM): 0.0%; % eyes sprouted ([3]; 8 mM): 0.0%; sprouting till 20 days after treatment [3]: sprouting was not observed |
| CC(=O)OC/C=C(\C)CCC=C(C)C [Geranyl acetate] | – | – | – | 58 | – | – | – | inhibited sprouting by [2, 6]: 42% |
| C=C(C)[C@@H]1CC=C(C)C(=O)C1 [I-carvone] | – | – | – | 100 | no significant effect | – | – | – |
| C=CC(C)(O)CCC=C(C)C (stereo not drawn) [Linalool] | – | – | – | 100 | no significant effect | – | – | – |
| CC1CCC(C(C)C)C(O)C1 (stereo not drawn) [Menthol] | 29 | 29 | 29 | – | – | – | – | – |
| CC(=O)OC1CC(C)CCC1C(C)C (stereo not drawn) [Menthyl acetate] | 0.0 | 0.0 | 0.0 | – | – | 0.0 | remained unsprouted | – |
| Cc1ccc(C(C)C)c(O)c1 [Thymol] | 79 | 98 | 98 | – | – | – | – | – |
| CC(C)=CCCC(C)CC=O (stereo not drawn) [citronellal] | – | – | – | – | – | 0.0 | remained unsprouted | – |
| C=C(C)[C@H]1CC=C(C)C(=O)C1 [d-carvone] | – | – | – | 93 | no significant effect | – | – | – |
| CC(C)=CCC[C@@H](C)CCO [d-citronellol] | – | – | – | 17 | – | 0.0 | remained unsprouted | – |
| CC(C)=CCC[C@H](C)CCO [l-citronellol] | – | – | – | 0.0 | – | – | – | – |
